Test results reported in paper PMC8297402, “Trifluoromethyl-substituted 3,5-bis(arylidene)-4-piperidones as potential anti-hepatoma and anti-inflammation agents by inhibiting NF-кB activation” (Journal of Enzyme Inhibition and Medicinal Chemistry, 2021).
Read-outs that look alike come from different tables or passages of the source.

Tests used:
HepG2 = experiment: Modified MTT cytotoxicity assay, HepG2; format: cell-based, Human; settings: for IC50: MTT, 24 h incubation, three replicates, read-out: Cytotoxicity IC50 HepG2; for SI (selectivity index) HepG2: quotient of IC50 for normal (LO2) and malignant (HepG2) cells
Procedure: (§1) The HepG2, SMMC-7721, and LO2 cell lines were maintained at 37 °C, 5% humidified CO2, and 95% atmosphere. Dulbecco's Modified Eagle (DMEM) medium containing 10% foetal bovine serum (FBS) was used for culturing the HepG2 cell line; meanwhile, Roswell Park Memorial Institute (RPMI) 1640 medium containing 10% FBS was used for culturing other cell lines (SMMC-7721, LO2). The HepG2, SMMC-7721 and LO2 cells were seeded in a 96-well plate in 200 μL of medium per well at a density of approximately 8 × 10^3 cells/well and cultured for 24 h, followed by incubation in an incubator of indicated compounds with successive concentrations (10, 5, 2.5, 1.25, 0.625, 0.3125 μg/mL) for 24 h. In the control group, cells were only cultured with culture media. After the media were removed, 20 μL of MTT (5 mg/mL) was added, then cells were incubated for 4 h at 37 °C. […] GraphPad Prism 5 software was used to calculate their IC50 values. Every IC50 value was the average of three replicates. Doxorubicin (DOX) and curcumin were used as positive controls.

SMMC-7721 = experiment: Modified MTT cytotoxicity assay, SMMC-7721; format: cell-based, Human; settings: for IC50: MTT, 24 h incubation, three replicates; for SI (selectivity index) SMMC-7721: quotient of IC50 for normal (LO2) and malignant (SMMC-7721) cells
Procedure: as §1

LO2 = experiment: Modified MTT cytotoxicity assay, normal heptical cell line LO2; format: cell-based, human; settings: 24 h incubation
Procedure: as §1

RAW264.7 cell = experiment: MTT toxicity pre-experiment on RAW264.7 macrophagocyte; format: cell-based, mouse; settings: for Survival rate RAW264.7 cell: BAPs 5 μM; for viability at 5 µM: Mus musculus, RAW264.7, BAPs 5 μM, read-out: Survival rate RAW264.7 cell
Procedure: Lipopolysaccharide (LPS) is a key constituent of Gram-negative bacterial endotoxin, which is used to induce an inflammatory response in corresponding inflammatory cells. TNF-α and IL-6 are two kinds of representative pro-inflammatory factors, which produced by LPS-stimulated RAW264.7 macrophage. In our pre-experiments, the toxicity against RAW264.7 macrophagocyte for all title compounds was tested by the MTT assay, and the results were listed in Table 2. The survival rates were above 80% for all BAPs (4-30) at the concentration of 5.0 μM.

TNF-α = experiment: ELISA of TNF-α release in LPS-stimulated RAW264.7 cells; format: cell-based, mouse; settings: RAW264.7, ELISA; for Inhibition rate TNF-α: BAPs (5 μM) + LPS (1 μg/mL); for inhibition at 5 µM: RAW264.7, BAPs (5 μM) + LPS (1 μg/mL)
Procedure: (§2) We tested by inhibiting the secretion of TNF-α and IL-6 to better evaluated the anti-inflammatory effects of BAPs. […] Under the stimulation of LPS (1.0 μg/mL) with RAW264.7 cells, the release of TNF-α and IL-6 was detected. Besides, after treated with BAPs (5.0 μM) and LPS (1.0 μg/mL), the release of TNF-α and IL-6 was measured with an ELISA kit (eBioScience, San Diego, California), respectively. In general terms, pyrrolidine dithiocarbamate (PDTC, 30 μM) or BAP (5.0 μM) was used to pretreat cells for 2 h, respectively. Then, LPS (1.0 μg/mL) was added and cells were incubated for another 22 h. Finally, the culture media were centrifuged at 1000 rpm for 10 min, and the expression levels of TNF-α and IL-6 were determined by ELISA.

IL-6 = experiment: ELISA of IL-6 release in LPS-stimulated RAW264.7 cells; format: cell-based, mouse; settings: RAW264.7, ELISA; for Inhibition rate IL-6: BAPs (5 μM) + LPS (1 μg/mL); for inhibition at 5 µM: RAW264.7, BAPs (5 μM) + LPS (1 μg/mL)
Procedure: as §2

A549 = experiment: Modified MTT cytotoxicity assay, A549; settings: for SI (selectivity index) A549: quotient of IC50 for normal (HHL-5) and malignant (A549) cells
Procedure: (§3) To further verify the anti-tumour activity, one human non-small cell lung cancer cell line (A549), one human ovarian cancer cell line (A2780), and one human normal heptical cell line (HHL-5) were screened by BAPs (4–30) using a modified MTT assay (Supporting Information). DOX and curcumin were selected as positive controls.
(§4) The optical density (OD) value of each well was measured on a
(§5) multi-well plate reader (TECAN, Mӓnnedorf, Switzerland ) at 570 nm.
(§6) Every IC 50 value was the average of three replicates.
(§7) Doxorubicin (DOX) and Curcumin were used as positive controls.

A2780 = experiment: Modified MTT cytotoxicity assay, A2780; settings: for SI (selectivity index) A2780: quotient of IC50 for normal (HHL-5) and malignant (A2780) cells
Procedure: as §3, §4, §5, §6, §7

[1] = Modified MTT cytotoxicity assay, normal heptical cell line LO2; format: cell-based, human; settings: human, LO2 cells (normal hepatic cell line), 24 h incubation
Procedure: as §1

[2] = Modified MTT cytotoxicity assay, normal heptical cell line HHL-5; settings: human, HHL-5 cells (normal hepatic cell line)
Procedure: as §3, §4, §5, §6, §7

[3] = read-out: Cytotoxicity IC50 A549, MTT, non-small cell lung cancer cell line
[4] = read-out: Cytotoxicity IC50 A2780, MTT, ovarian cancer cell line
[5] = Mus musculus, read-out: Inhibition rate TNF-α
[6] = Mus musculus, read-out: Inhibition rate IL-6
[7] = Homo sapiens, A549, read-out: Cytotoxicity IC50 A549, MTT, non-small cell lung cancer cell line
[8] = Homo sapiens, A2780, read-out: Cytotoxicity IC50 A2780, MTT, ovarian cancer cell line

Row | SMILES | SI (selectivity index) HepG2 (HepG2) | SI (selectivity index) SMMC-7721 (SMMC-7721) | SI (selectivity index) A549 (A549) | SI (selectivity index) A2780 (A2780) | IC50 (HepG2; Homo sapiens, HepG2, 24 h) [µM] | IC50 (SMMC-7721; Homo sapiens, SMMC-7721, 24 h) [µM] | IC50 at 24 h [1] [µM] | viability at 5 µM (RAW264.7 cell) [%] | inhibition at 5 µM (TNF-α; [5]) [%] | inhibition at 5 µM (IL-6; [6]) [%] | IC50 (A549; [7]) [µM] | IC50 (A2780; [8]) [µM] | IC50 [2] [µM] | other results
1 | O=C1/C(=C/c2ccccc2C(F)(F)F)CN(S(=O)(=O)c2ccccc2)C/C1=C\c1ccccc1C(F)(F)F [BAP 4] | 1.8 | 2.0 | 3.8 | 0.2 |  |  |  |  |  |  |  |  |  | IC50 (HepG2; listed as 4): 9.2 ± 0.2 µM; IC50 (HepG2): ~9.2 µM; IC50 (SMMC-7721): ~8.2 µM; IC50 (SMMC-7721; listed as 4): 8.2 ± 0.6 µM; IC50 (LO2): 16.4 ± 0.2 µM; Survival rate RAW264.7 cell (RAW264.7 cell): 82.2 ± 2.0%; Inhibition rate TNF-α (TNF-α): 62.1 ± 4.7%; Inhibition rate IL-6 (IL-6): 70.7 ± 1.3%; IC50 (A549; [3]): 2.24 ± 1.23 µM; IC50 (A2780; [4]): 54 ± 12 µM
2 | O=C1/C(=C/c2ccccc2C(F)(F)F)CN(S(=O)(=O)c2ccc(F)cc2)C/C1=C\c1ccccc1C(F)(F)F [BAP 8] |  |  |  |  | 4 ± 0.2 | 8.3 ± 0.2 | 13.8 ± 1.1 | 82.1 ± 1.9 | 46.8 ± 4.2 | 51.3 ± 3.3 | 13.5 ± 1.39 | 1.44 ± 0.54 | 11.8 ± 0.2 | 
3 | O=C1/C(=C/c2ccccc2C(F)(F)F)CN(S(=O)(=O)c2ccc(Cl)cc2)C/C1=C\c1ccccc1C(F)(F)F [BAP 9] |  |  |  |  | 11 ± 0.3 | 10.4 ± 0.3 | 30.9 ± 0.3 | 92.8 ± 4.2 | 47.1 ± 6.4 | 38.2 ± 2.5 | 1.86 ± 0.61 | 0.62 ± 0.07 | 9.3 ± 0.1 | 
4 | COc1cc(/C=C/C(=O)CC(=O)/C=C/c2ccc(O)c(OC)c2)ccc1O [Curcumin, reference compound] | 1.9 | 1.5 | 0.8 | 0.5 | ~15.3 | ~19.5 | 29.1 ± 2.1 |  |  |  | 32 ± 3.55 | 44 ± 9.82 | 24.2 ± 0.5 | 
5 | Cc1ccc(S(=O)(=O)N2C/C(=C\c3ccccc3C(F)(F)F)C(=O)/C(=C/c3ccccc3C(F)(F)F)C2)cc1 [BAP 5] |  |  |  |  | 17.5 ± 0.1 | 19.7 ± 0.1 | 36.2 ± 2.3 | 93.3 ± 1.7 | 46.2 ± 1 | 49.6 ± 1.1 | 14 ± 1.99 | 4.85 ± 0.47 | 24.9 ± 0.1 | 
6 | Cc1ccc(S(=O)(=O)N2C/C(=C\c3cccc(C(F)(F)F)c3)C(=O)/C(=C/c3cccc(C(F)(F)F)c3)C2)cc1 [BAP 14] |  |  |  |  | 11.1 ± 0.2 | 5.6 ± 0.1 | 15.9 ± 0.1 | 89.2 ± 1.8 | 60.2 ± 1.2 | 66.3 ± 2 | 0.23 ± 0.04 | 0.14 ± 0.03 | 9.4 ± 0.2 | 
7 | O=C1/C(=C/c2ccc(C(F)(F)F)cc2)CN(S(=O)(=O)c2ccc(F)cc2)C/C1=C\c1ccc(C(F)(F)F)cc1 [BAP 26] | 5.1 | 5.1 | 70.6 | 38.0 |  |  |  |  |  |  |  |  |  | IC50 (HepG2): 3.1 ± 0.2 µM; IC50 (SMMC-7721): 3.1 ± 0.1 µM; IC50 (LO2): 15.7 ± 0.2 µM; Survival rate RAW264.7 cell (RAW264.7 cell): 87.6 ± 1.7%; Inhibition rate TNF-α (TNF-α): 66.3 ± 5.3%; Inhibition rate IL-6 (IL-6): 62.8 ± 3.0%; IC50 (A549; [3]): 0.16 ± 0.05 µM; IC50 (A2780; [4]): 0.297 ± 0.05 µM
8 | N#Cc1ccc(S(=O)(=O)N2C/C(=C\c3cccc(C(F)(F)F)c3)C(=O)/C(=C/c3cccc(C(F)(F)F)c3)C2)cc1 [BAP 20] | 19.3 | 4.0 | 14.1 | 16.0 | 0.9 ± 0.1 | 4.3 ± 0.2 | 17.4 ± 0.1 | 83.7 ± 1.3 | 75.2 ± 2.7 | 77.7 ± 1.5 | 0.17 ± 0.002 | 0.15 ± 0.02 | 2.4 ± 0.4 | 
9 | S=C(S)N1CCCC1 [PDTC, pyrrolidine dithiocarbamate, reference compound] |  |  |  |  |  |  |  |  |  |  |  |  |  | inhibition at 30 µM (TNF-α; Mus musculus, RAW264.7, PDTC 30 μM + LPS (1 μg/mL), read-out: Inhibition rate TNF-α): ~68.2%; inhibition at 30 µM (IL-6; Mus musculus, RAW264.7, PDTC 30 μM + LPS (1 μg/mL), read-out: Inhibition rate IL-6): ~59.1%
10 | O=C1/C(=C/c2cccc(C(F)(F)F)c2)CN(S(=O)(=O)c2ccc(Cl)cc2)C/C1=C\c1cccc(C(F)(F)F)c1 [BAP 18] |  |  |  |  | 5.2 ± 0.1 | 13.9 ± 0.1 | 14.1 ± 0.1 | 85.7 ± 4.2 | 50.6 ± 3.2 | 46.2 ± 2.1 | 0.15 ± 0.02 | 0.19 ± 0.02 | 2.2 ± 0.1 | 
11 | N#Cc1ccc(S(=O)(=O)N2C/C(=C\c3ccccc3C(F)(F)F)C(=O)/C(=C/c3ccccc3C(F)(F)F)C2)cc1 [BAP 11] | 1.4 | 1.1 | 0.2 | 0.5 | 9 ± 0.2 | 12 ± 0.2 | 13 ± 0.1 | 84.2 ± 2 | 58.9 ± 3.2 | 59.1 ± 5.2 | 64.2 ± 10.2 | 32.3 ± 7.69 | 15.5 ± 0.3 | 
12 | O=C1/C(=C/c2ccc(C(F)(F)F)cc2)CN(S(=O)(=O)c2ccc(Br)cc2)C/C1=C\c1ccc(C(F)(F)F)cc1 [BAP 28] | 8.4 | 7.5 | 103.5 | 115.0 | 1.7 ± 0.2 | 1.9 ± 0.2 | 14.2 ± 0.3 | 84 ± 3.6 | > 70 | > 70 | 0.2 ± 0.02 | 0.18 ± 0.04 | 20.7 ± 0.5 | 
13 | O=C1/C(=C/c2ccc(C(F)(F)F)cc2)CN(S(=O)(=O)c2ccccc2)C/C1=C\c1ccc(C(F)(F)F)cc1 [BAP 22] |  |  |  |  | ~1.8 | ~8.5 | 18.2 ± 0.2 | 89.4 ± 7.8 | 65.2 ± 1.3 | 68.3 ± 1.3 | 0.18 ± 0.02 | 0.17 ± 0.06 | 7.9 ± 0.1 | 
14 | O=C1/C(=C/c2cccc(C(F)(F)F)c2)CN(S(=O)(=O)c2ccc(F)cc2)C/C1=C\c1cccc(C(F)(F)F)c1 [BAP 17] |  |  |  |  | 3.4 ± 0.2 | 4.8 ± 0.3 | 19.5 ± 0.1 | 85.1 ± 2 | 65.6 ± 1.2 | 67.6 ± 2.2 | 0.28 ± 0.01 | 0.14 ± 0.01 | 3.5 ± 0.5 | 
